Where no end group is shown, it is not given here.
Tested on: Gram-positive and Gram-negative bacteria
Assay: In vitro disc diffusion of identified amino acid sequences
Format: cell-based
Description: Each amino acid sequence identified in each of samples 1, sample 2 and sample 3, were checked for antibacterial activity using the invitro disc diffusion method of Murray P R et al; 1995 (Murray P R, Baron E J, Pfaller M A, Tenover F C, Yolke R H. (1995). Manual of Clinical Microbiology, ASM, Washington, D.C. 6th edition.)
The amino acid sequences were also compared to an Ampicillin standard of 10 μg/mL

Sequence | Antibacterial activity of amino acid sequences | Antibacterial activity compared with the standard drug ampicillin
KRGRLIWRVWRGIW [SEQ ID NO: 4, antibacterial peptide from the <10 kDa fraction of date pits degraded by solid state degradation] | maximum anti-bacterial activity | comparable to the standard drug ampicillin
RQWISRWTWQR [SEQ ID NO:6, antibacterial peptide from the <10 kDa fraction of date pits degraded by solid state degradation] | maximum anti-bacterial activity | comparable to the standard drug ampicillin
